Literature values, collected in patent publication US20080317862A1, “Organic Compounds Comprising a Glycopyrrolium Salt” (priority 2005, published 2008).

Conditions: aerosol formulation for treating asthma, single administration of a metered dose

Q: With `C[N+]1(C)CCC(OC(=O)C(O)(c2ccccc2)C2CCCC2)C1.[Br-]` (racemic) [glycopyrrolate, 3-[(cyclopentyl-hydroxyphenylacetyl)oxy]-1,1-dimethylpyrrolidinium bromide] as the molecule, how does the duration of bronchodilation read?
A: up to 12 hours
